Measurements from patent publication US20210177992A1, “ANTICANCER FLUORESCENT SUBSTANCE DERIVED FROM NATURAL MATERIALS” (SEOUL NATIONAL UNIVERSITY R&DB FOUNDATION, priority 2017, published 2021).

What was measured:
normal cell MCF10A [1] = test: TUNEL assay; assay type: cell-based; conditions: 50 μM, 24 hours
Protocol: (§1) In detail, a cancer cell MCF7 and a normal cell MCF10A were treated with 50 μM of resveratrone or resveratrone glucoside, respectively, and incubated for 24 hours. Thereafter, the cells were treated with 0.5% PBS-Triton X-100 and incubated for 10 minutes to increase cell permeability. The cells were treated with terminal deoxynucleotide transferase and tetra-methyl-rhodamine dUTP, followed by incubation at 37° C. for 1 hour. Next, the cells were washed with PBS three times, and treated with DAPI dye for nuclear counterstaining. Apoptotic signals were observed using fluorescence images.

cancer cell MCF7 [2] = test: TUNEL assay; assay type: cell-based; conditions: MCF7, 50 μM, 24 hours
Protocol: as §1

zebrafish embryos = test: Cytotoxicity and fluorescence in zebrafish embryos; assay type: in vivo; conditions: 300 μM, observed at 2 hr, 20 hr, 48 hr, 72 hr
Protocol: In detail, zebrafish embryos (donated by Hyunsook Lee Lab, School of Biological Sciences, Seoul National University) were cultured, and treated with 300 μM of resveratrone or resveratrone glucoside. At 2 hr, 20 hr, 48 hr, and 72 hr after treatment, their changes were observed.

MCF10A = test: Annexin V FACS apoptosis measurement; assay type: cell-based; conditions: MCF10A normal cell, 24 hours
Protocol: (§2) Cancer cell apoptotic effects of resveratrone and resveratrone glucoside (see U.S. Pat. No. 9,708,23762) were measured by FACS using Annexin-V binding to phosphatidiylserine (PS) which exists in the inner leaflet of the cytoplasmic membrane and is exposed to the outer leaflet of cell membrane during apoptosis.
(§3) In detail, apoptosis of normal cells or cancer cells, each treated with resveratrone or resveratrone glucoside, was evaluated by measuring signals of Alexa dye-conjugated annexin V using FACS. HeLa, MCF7, SW480, SW620, and HCC1954 which are cancer cells, and NIH3T3 and MCF10A which are normal cells, each treated with 50 μM resveratrone or 100 μM resveratrone glucoside, were cultured under conditions of 37° C. and 5% CO2 for 24 hours. Thereafter, media was removed, and the cells were washed with PBS buffer twice to remove remaining resveratrone or resveratrone glucoside. The cells were collected and centrifuged to remove supernatants. Annexin-bound buffer (10 mM HEPES, 140 mM NaCl, 2.5 mM CaCl2, pH 7.4) was added and resuspended. 5 μl of Alexa Fluor 647-conjugated annexin V was added to the resuspended cells at the cell volume of 100 μl, followed by incubation for 15 minutes. 1 ml of binding buffer was added to the incubated cells, followed by centrifugation. The supernatant was removed to remove remaining Alexa Fluor 647-conjugated annexin V. Thereafter, 500 μl of annexin-binding buffer was further added, and cells were passed through a cell strainer cap and stored in a round-bottom tube.

MCF7 = test: Annexin V FACS apoptosis measurement; assay type: cell-based; conditions: MCF7 cancer cell, 24 hours
Protocol: as §2, §3

cancer cells = test: Annexin V FACS, apoptotic cells in cancer cells compared with normal cells; assay type: cell-based; conditions: 100 μM resveratrone glucoside, 24 hours
Protocol: as §2
as §3, with “The supernatant was removed to remove remaining Alexa Fluor 647-conjugated annexin V. Thereafter, 500 μl of annexin-binding buffer was further added, and cells were passed through a cell strainer cap and stored in a round-bottom tube.” left out

normal cell MCF10A [3] = test: Western blotting for cleaved parp; assay type: cell-based; conditions: 50 μM, 48 hours
Protocol: (§4) In detail, a cancer cell MCF7 and a normal cell MCF10A were treated with 50 μM of resveratrone, respectively, and incubated for 48 hours. The incubated cells were harvested and lysed with a NETN buffer (150 mM NaCl, 20 mM Tris/Cl pH 8.0, 0.5% v/v NP-40, 1 mM EDTA) containing a protease inhibitor, and then conjugated with a cleaved parp antibody, and sequentially, with a secondary antibody. Then, the presence or absence thereof was examined.

cancer cell MCF7 [4] = test: Western blotting for cleaved parp; assay type: cell-based; conditions: MCF7, 50 μM, 48 hours
Protocol: as §4

NIH3T3 = test: Annexin V FACS apoptosis measurement; assay type: cell-based; conditions: NIH3T3 normal cell, 50 μM resveratrone, 24 hours
Protocol: as §2, §3

SW480 = test: Annexin V FACS apoptosis measurement; assay type: cell-based; conditions: SW480 cancer cell, 50 μM resveratrone, 24 hours
Protocol: as §2, §3

HCC1954 = test: Annexin V FACS apoptosis measurement; assay type: cell-based; conditions: HCC1954 cancer cell, 50 μM resveratrone, 24 hours
Protocol: as §2, §3

HeLa = test: Annexin V FACS apoptosis measurement; assay type: cell-based; conditions: HeLa cancer cell, 50 μM resveratrone, 24 hours
Protocol: as §2, §3

SW620 = test: Annexin V FACS apoptosis measurement; assay type: cell-based; conditions: SW620 cancer cell, 50 μM resveratrone, 24 hours
Protocol: as §2, §3

[5] = system: organoids having G12D mutation of Kras gene; test: Apoptosis in pancreatic organoids; assay type: cell-based, mouse; conditions: treatment repeated after 72 hr, read 12 hr after final treatment
Protocol: In detail, as an alternative to a pancreatic tissue of a wild-type mouse and an individual with cancer, a pancreatic tissue having G12D mutation of Kras gene was obtained from a transgenic mouse, and the pancreatic tissue was dissociated with a dissociation solution, filtered. Then, a cell pellet containing ductal cells was collected by centrifugation, and incubated with a biological substrate material. The dissociation solution containing Hank's Balanced Salt Solution (HBSS) (3 ml), collagenase P (5 mg/ml), and DNase 1 (1 Units/μl) was used in a volume of 3 ml per pancreatic tissue (Vpan=about 1.08 mg/mm^3). When the collected cell pellet was incubated with the biological substrate material, three-dimensional pancreatic organoids were prepared by incubation under conditions of 37° C. and 5% CO2 with Matrigel which is a gelatinous protein mixture secreted from the murine Engelbreth-Holm-Swarm (EHS) sarcoma. Resveratrone and resveratrone glucoside were treated using DMSO as a solvent to reach a specific concentration with respect to the culture. After 72 hr, the medium was replaced by a fresh culture medium, and the above treatment was repeated. 12 hr after final treatment, changes of the organoids were recorded using an inverted fluorescence microscope (available from Zeiss) capable of photographing […] fluorescence. […]

normal cell MCF10A [6] = test: Cell morphology by optical microscopy; assay type: cell-based; conditions: 50 μM, 48 hours
Protocol: (§5) In detail, a normal cell MCF10A and a cancer cell MCF7 were treated with 50 μM of resveratrone, respectively, and incubated for 48 hours. After incubation, media was removed, and the cells were washed with PBS buffer three times. Changes of cell morphology in PBS buffer were observed and compared by optical microscopy.

cancer cell MCF7 [7] = test: Cell morphology by optical microscopy; assay type: cell-based; conditions: MCF7, 50 μM, 48 hours
Protocol: as §5

Compound | TUNEL apoptotic signals (normal cell MCF10A [1]) | TUNEL apoptotic signals (cancer cell MCF7 [2]) | cytotoxicity during development of zebrafish embryos (zebrafish embryos) | Apoptotic fraction (%) (MCF10A; 100 μM resveratrone glucoside) | Apoptotic fraction (%) (MCF7; 100 μM resveratrone glucoside) | increase of number of apoptotic cells in cancer cells as compared with normal cells (cancer cells) | Cleaved parp presence (normal cell MCF10A [3]) | Cleaved parp presence (cancer cell MCF7 [4]) | Apoptotic fraction (%) (NIH3T3) | Apoptotic fraction (%) (SW480) | Apoptotic fraction (%) (HCC1954) | Apoptotic fraction (%) (MCF10A; 50 μM resveratrone) | Apoptotic fraction (%) (MCF7; 50 μM resveratrone) | Apoptotic fraction (%) (HeLa) | Apoptotic fraction (%) (SW620) | apoptosis induction in organoids [5] | Changes of cell morphology (normal cell MCF10A [6]) | Changes of cell morphology (cancer cell MCF7 [7])
CC(=O)/C=C/c1ccc2cc(O[C@@H]3OC(CO)[C@@H](O)C(O)C3O)cc(O)c2c1 (stereo partly drawn) [resveratrone glucoside] | no effect on normal cells | observed only in the cancer cell MCF7 | induced no cytotoxicity | 0.7 | 15.5 | about 22 times | – | – | – | – | – | – | – | – | – | – | – | –
CC(=O)/C=C/c1ccc2cc(O)cc(O)c2c1 [resveratrone] | no effect on normal cells | observed only in the cancer cell MCF7 | induced no cytotoxicity | – | – | – | not observed in the resveratrone-treated normal cells | observed in the resveratrone-treated cancer cells | 2.0 | 15.5 | 39.3 | 1.0 | 26.0 | 20.0 | 17.4 | showed apoptosis induction | clearly observed irrespective of treatment with resveratrone | showed morphological features of apoptosis
